{"source": "patent US8034242B2", "about": "“Dialysis device” (Linden Technologies, Inc., priority 2004, dated 2011)", "test_system": "plasma protein", "type": "in vitro ADME, dog", "experimental": "One dialysis device was used in an equilibrium dialysis study to measure plasma protein binding of warfarin. A 0.1 M warfarin solution was prepared by dissolving 0.154 g of warfarin in 5 ml of phosphate buffered salts (PBS). The pH was adjusted with 400 Tl of 6 M NaOH to a final volume of 5.761 ml and a final concentration of 86.8 mM. The warfarin solution was then diluted to 1 mM before adding to the plasma solution. 2.2 Tl of 1 mM warfarin was added to 2.2 ml plasma to make 1 TM final concentration of warfarin in the plasma. 1 ml of the warfarin-containing dog plasma was added inside the cylindrical membrane of each dialysis device and 1 ml of PBS to outside of the membrane. The filled device was placed in a 37° C. incubator with gentle shaking 100 Tl samples were withdrawn separately from the plasma and the buffer chambers at 0.5, 1, 2, 3, and 4 h intervals. To the plasma sample was added 100 μl of blank buffer. To the buffer sample was added 100 μl of blank plasma. After mixing, 50 μl of the plasma sample was withdrawn. To the plasma sample (50 μl) was added 450 μl of 1:1 ratio of plasma/buffer solution to make a 10-fold dilution. The sample from the buffer was not diluted. 200 μl acetonitrile was added to 200 μl each of the samples from plasma and the buffer. The mixtures were vortexed and then centrifuged at 13,000 rpm for 3 min. The resulting extracts were analyzed using an API-40003 LC/MS/MS system (Applied Biosciences/MDS SCIEX). […] The experiment was conducted in duplicate."}
{"smiles": "CC(=O)CC(c1ccccc1)c1c(O)c2ccccc2oc1=O", "note": "(stereo not drawn) [warfarin]", "values": [{"measurement": "consistency of equilibrium curve (time to equilibrium)", "value": "≤ 1", "unit": "h"}, {"measurement": "dialysis reached equilibrium state (time)", "value": "≤ 30", "unit": "min"}, {"measurement": "ratio of protein binding", "setting": "dog, 1 µM", "value": "~99", "unit": "%"}]}
